From patent US9139609B2, “C-4″ position substituted macrolide derivative” (priority 2011, dated 2015)
In brackets after ≈: the same amount, converted by molar mass.

How the values were obtained:
Assay type in all cases: cell-based
[1] = system: Haemophilus infuenzae ATCC43095; assay: In vitro antibacterial activity, microbroth dilution method (CLSI method), test bacterium A; conditions: read-out: MIC (minimum inhibitory concentration), test bacterium A
Method: (§1) In vitro antibacterial activities of the compounds of the present invention against various test bacteria were measured according to the microbroth dilution method (CLSI method). Among them, the bacteria C, D and E are erythromycin resistant bacteria. The MIC values (minimum inhibitory concentration, μg/ml) for the test bacteria A and B are exemplified in Table 22.

[2] = system: Streptococcus pneumoniae ATCC49619; assay: In vitro antibacterial activity, microbroth dilution method (CLSI method), test bacterium B; conditions: read-out: MIC (minimum inhibitory concentration), test bacterium B
Method: as §1

[3] = system: Streptococcus pneumoniae ATCC700904; assay: In vitro antibacterial activity, microbroth dilution method (CLSI method), test bacterium C (erythromycin resistant); conditions: read-out: MIC (minimum inhibitory concentration), test bacterium C
Method: as §1

[4] = system: Streptococcus pyogenes M808; assay: In vitro antibacterial activity, microbroth dilution method (CLSI method), test bacterium D (erythromycin resistant); conditions: read-out: MIC (minimum inhibitory concentration), test bacterium D
Method: as §1

Row | SMILES | MIC [1] [µg/mL] | MIC [2] [µg/mL] | MIC [3] [µg/mL] | MIC [4] [µg/mL]
1 | CC[C@H]1OC(=O)[C@H](C)[C@@H](O[C@H]2C[C@@](C)(OC)[C@@](O)(CN(C)CCN3C4CCC3CC4)[C@H](C)O2)[C@H](C)[C@@H](O[C@@H]2O[C@H](C)C[C@H](N(C)C)[C@H]2O)[C@@](C)(OC)C[C@@H](C)C(=O)[C@H](C)[C@H]2N(CCNS(C)(=O)=O)C(=O)O[C@]12C [Example446] | 4 (≈ 3.77 µM) | 0.03 (≈ 0.0283 µM) | – | –
2 | CC[C@H]1OC(=O)[C@H](C)[C@@H](O[C@H]2C[C@@](C)(OC)[C@@](O)(CN(C)CCN(CC)C(C)=O)[C@H](C)O2)[C@H](C)[C@@H](O[C@@H]2O[C@H](C)C[C@H](N(C)C)[C@H]2O)[C@@](C)(OC)C[C@@H](C)C(=O)[C@H](C)[C@H]2NC(=O)O[C@@]21C [Example 263] | – | – | 0.5 to 2 (≈ 0.538 to 2.15 µM) | ≥ 16
3 | CC[C@H]1OC(=O)[C@H](C)[C@@H](O[C@H]2C[C@@](C)(OC)[C@@](O)(CN(C)CCN(C(C)C)C(C)C)[C@H](C)O2)[C@H](C)[C@@H](O[C@@H]2O[C@H](C)C[C@H](N(C)C)[C@H]2O)[C@@](C)(OC)C[C@@H](C)C(=O)[C@H](C)[C@H]2N(CCOS(N)(=O)=O)C(=O)O[C@]12C [Example 456] | – | – | 0.12 to 0.25 (≈ 0.113 to 0.234 µM) | ≤ 2
4 | CC[C@H]1OC(=O)[C@H](C)[C@@H](O[C@H]2C[C@@](C)(OC)[C@@](O)(CN(C)CCN(C)C)[C@H](C)O2)[C@H](C)[C@@H](O[C@@H]2O[C@H](C)C[C@H](N(C)C)[C@H]2O)[C@@](C)(OC)C[C@@H](C)C(=O)[C@H](C)[C@H]2C(SCCCn3cnc4c(N)ncnc43)C(=O)O[C@@]21C (some centres unmarked) [Example364] | 8 (≈ 7.32 µM) | 0.03 (≈ 0.0274 µM) | – | –
5 | CC[C@H]1OC(=O)[C@H](C)[C@@H](O[C@H]2C[C@@](C)(OC)[C@@](O)(CN(C)CCN(C)C)[C@H](C)O2)[C@H](C)[C@@H](O[C@@H]2O[C@H](C)C[C@H](N(C)C)[C@H]2O)[C@@](C)(OC(=O)NC/C=C/c2ccc3ncccc3c2)C[C@@H](C)C(=O)[C@H](C)[C@H]2NC(=O)O[C@@]21C [Example 348] | – | – | 0.12 to 0.25 (≈ 0.111 to 0.231 µM) | 4 to 8 (≈ 3.69 to 7.38 µM)
6 | CC[C@H]1OC(=O)[C@H](C)[C@@H](O[C@H]2C[C@@](C)(OC)[C@@](O)(CN(C)CCN(C)C(C)(C)c3ccccc3OC)[C@H](C)O2)[C@H](C)[C@@H](O[C@@H]2O[C@H](C)C[C@H](N(C)C)[C@H]2O)[C@@](C)(OC(N)=O)C[C@@H](C)C(=O)[C@H](C)[C@H]2NC(=O)O[C@@]21C [Example342] | 4 (≈ 3.81 µM) | 0.06 (≈ 0.0571 µM) | – | –
7 | CC[C@H]1OC(=O)[C@H](C)[C@@H](O[C@H]2C[C@@](C)(OC)[C@@](O)(CN(C)CCN(CC)C(=O)OC)[C@H](C)O2)[C@H](C)[C@@H](O[C@@H]2O[C@H](C)C[C@H](N(C)C)[C@H]2O)[C@@](C)(OC)C[C@@H](C)C(=O)[C@H](C)[C@H]2NC(=O)O[C@@]21C [Example 264] | – | – | 0.12 to 0.25 (≈ 0.127 to 0.264 µM) | ≥ 16
8 | CC[C@H]1OC(=O)[C@H](C)[C@@H](O[C@H]2C[C@@](C)(OC)[C@@](O)(CN(C)CCN(C)C(C)(C)c3ccccc3OC)[C@H](C)O2)[C@H](C)[C@@H](O[C@@H]2O[C@H](C)C[C@H](N(C)C)[C@H]2O)[C@]2(C)C[C@@H](C)C(O2)[C@H](C)[C@H]2NC(=O)O[C@@]21C [Example 332] | – | – | 0.5 to 2 (≈ 0.504 to 2.02 µM) | ≥ 16
9 | CC[C@H]1OC(=O)[C@H](C)[C@@H](O[C@H]2C[C@@](C)(OC)[C@@](O)(CN(C)CCN3C4CCC3CC4)[C@H](C)O2)[C@H](C)[C@@H](O[C@@H]2O[C@H](C)C[C@H](N(C)C)[C@H]2O)[C@@](C)(OC)C[C@@H](C)C(=O)[C@H](C)[C@H]2N(CCNS(C)(=O)=O)C(=O)O[C@]12C [Example 446] | – | – | 0.12 to 0.25 (≈ 0.113 to 0.236 µM) | 4 to 8 (≈ 3.77 to 7.54 µM)
10 | CC[C@H]1OC(=O)[C@H](C)[C@@H](O[C@H]2C[C@@](C)(OC)[C@@](O)(CN(C)C(=O)CN(CC)CC)[C@H](C)O2)[C@H](C)[C@@H](O[C@@H]2O[C@H](C)C[C@H](N(C)C)[C@H]2O)[C@@](C)(OC)C[C@@H](C)C(=O)[C@H](C)[C@H]2NC(=O)O[C@@]21C [Example 329] | – | – | 0.5 to 2 (≈ 0.538 to 2.15 µM) | ≥ 16

More lines, now with the values ahead:

Row | MIC [1] [µg/mL] | MIC [2] [µg/mL] | MIC [3] [µg/mL] | MIC [4] [µg/mL] | SMILES
11 | – | – | 0.12 to 0.25 (≈ 0.113 to 0.235 µM) | 4 to 8 (≈ 3.76 to 7.52 µM) | CC[C@H]1OC(=O)[C@H](C)[C@@H](O[C@H]2C[C@@](C)(OC)[C@@](O)(CN(C)CCN(CC)CC)[C@H](C)O2)[C@H](C)[C@@H](O[C@@H]2O[C@H](C)C[C@H](N(C)C)[C@H]2O)[C@@](C)(OC)C[C@@H](C)C(=O)[C@H](C)[C@H]2N(CCN3CCNS3(=O)=O)C(=O)O[C@]12C [Example 440]
12 | 4 (≈ 3.81 µM) | 0.03 (≈ 0.0286 µM) | – | – | CC[C@H]1OC(=O)[C@H](C)[C@@H](O[C@H]2C[C@@](C)(OC)[C@@](O)(CN(CC)CCN(CC)CC)[C@H](C)O2)[C@H](C)[C@@H](O[C@@H]2O[C@H](C)C[C@H](N(C)C)[C@H]2O)[C@@](C)(OC)C[C@@H](C)C(=O)[C@H](C)[C@H]2N(CCNS(C)(=O)=O)C(=O)O[C@]12C [Example413]
13 | – | – | 0.12 to 0.25 (≈ 0.114 to 0.238 µM) | 4 to 8 (≈ 3.81 to 7.62 µM) | CC[C@H]1OC(=O)[C@H](C)[C@@H](O[C@H]2C[C@@](C)(OC)[C@@](O)(CN(CC)CCN(CC)CC)[C@H](C)O2)[C@H](C)[C@@H](O[C@@H]2O[C@H](C)C[C@H](N(C)C)[C@H]2O)[C@@](C)(OC)C[C@@H](C)C(=O)[C@H](C)[C@H]2N(CCNS(C)(=O)=O)C(=O)O[C@]12C [Example 413]
14 | – | – | 0.12 to 0.25 (≈ 0.113 to 0.236 µM) | ≤ 2 | CC[C@H]1OC(=O)[C@H](C)[C@@H](O[C@H]2C[C@@](C)(OC)[C@@](O)(CN(C)CCN(CC)C3CCC3)[C@H](C)O2)[C@H](C)[C@@H](O[C@@H]2O[C@H](C)C[C@H](N(C)C)[C@H]2O)[C@@](C)(OC)C[C@@H](C)C(=O)[C@H](C)[C@H]2N(CCCS(C)(=O)=O)C(=O)O[C@]12C [Example 418]
15 | – | – | 0.12 to 0.25 (≈ 0.111 to 0.231 µM) | 4 to 8 (≈ 3.7 to 7.4 µM) | CC[C@H]1OC(=O)[C@H](C)[C@@H](O[C@H]2C[C@@](C)(OC)[C@@](O)(CN(CCOC)CCN(CC)CC)[C@H](C)O2)[C@H](C)[C@@H](O[C@@H]2O[C@H](C)C[C@H](N(C)C)[C@H]2O)[C@@](C)(OC)C[C@@H](C)C(=O)[C@H](C)[C@H]2N(CCNS(C)(=O)=O)C(=O)O[C@]12C [Example 443]
16 | – | – | 0.12 to 0.25 (≈ 0.113 to 0.235 µM) | 4 to 8 (≈ 3.76 to 7.52 µM) | CC[C@H]1OC(=O)[C@H](C)[C@@H](O[C@H]2C[C@@](C)(OC)[C@@](O)(CN(C)CCN(C(C)C)C(C)C)[C@H](C)O2)[C@H](C)[C@@H](O[C@@H]2O[C@H](C)C[C@H](N(C)C)[C@H]2O)[C@@](C)(OC)C[C@@H](C)C(=O)[C@H](C)[C@H]2N(CCS(=O)(=O)NC)C(=O)O[C@]12C [Example 451]
17 | – | – | 0.5 to 2 (≈ 0.555 to 2.22 µM) | ≥ 16 | CC[C@H]1OC(=O)[C@H](C)[C@@H](O[C@H]2C[C@@](C)(OC)[C@@](O)(CN(C)CCN(C)C)[C@H](C)O2)[C@H](C)[C@@H](O[C@@H]2O[C@H](C)C[C@H](N(C)C)[C@H]2O)[C@@](C)(OC)C[C@@H](C)C(=O)[C@H](C)[C@H]2N(C)C(=O)O[C@]12C [Example 183]
18 | – | – | 0.12 to 0.25 (≈ 0.115 to 0.239 µM) | 4 to 8 (≈ 3.82 to 7.64 µM) | CC[C@H]1OC(=O)[C@H](C)[C@@H](O[C@H]2C[C@@](C)(OC)[C@@](O)(CN(C)CCN(CC)CC)[C@H](C)O2)[C@H](C)[C@@H](O[C@@H]2O[C@H](C)C[C@H](N(C)C)[C@H]2O)[C@@](C)(OC)C[C@@H](C)C(=O)[C@H](C)[C@H]2N(CC3CCS(=O)(=O)C3)C(=O)O[C@]12C (some centres unmarked) [Example 154]
19 | – | – | 0.12 to 0.25 (≈ 0.129 to 0.268 µM) | 4 to 8 (≈ 4.3 to 8.59 µM) | CC[C@H]1OC(=O)[C@H](C)[C@@H](O[C@H]2C[C@@](C)(OC)[C@@](O)(CN(C)CCN(CC)CC)[C@H](C)O2)[C@H](C)[C@@H](O[C@@H]2O[C@H](C)C[C@H](N(C)C)[C@H]2O)[C@@](C)(OC)C[C@@H](C)C(=O)[C@H](C)[C@H]2N(O)C(=O)O[C@]12C [Example 170]
